According to publication PMC11233931, “Remodeling tumor‐associated macrophage for anti‐cancer effects by rational design of irreversible inhibition of mitogen‐activated protein kinase‐activated protein kinase 2” (MedComm, 2024):

Experiments:
Experiment in all cases: Eurofins kinase selectivity profile against 380 other human recombinant kinases (Table S2)
Format in all cases: biochemical
[1] = target: T1, 380 human recombinant protein kinases (Homo sapiens, UniProt Q9H4B4); conditions: Plk3(h), read-out: Inhibition rate
T1 construct: purchased Eurofins (Celle Lévescault)
T1 sequence (Q9H4B4 whole entry): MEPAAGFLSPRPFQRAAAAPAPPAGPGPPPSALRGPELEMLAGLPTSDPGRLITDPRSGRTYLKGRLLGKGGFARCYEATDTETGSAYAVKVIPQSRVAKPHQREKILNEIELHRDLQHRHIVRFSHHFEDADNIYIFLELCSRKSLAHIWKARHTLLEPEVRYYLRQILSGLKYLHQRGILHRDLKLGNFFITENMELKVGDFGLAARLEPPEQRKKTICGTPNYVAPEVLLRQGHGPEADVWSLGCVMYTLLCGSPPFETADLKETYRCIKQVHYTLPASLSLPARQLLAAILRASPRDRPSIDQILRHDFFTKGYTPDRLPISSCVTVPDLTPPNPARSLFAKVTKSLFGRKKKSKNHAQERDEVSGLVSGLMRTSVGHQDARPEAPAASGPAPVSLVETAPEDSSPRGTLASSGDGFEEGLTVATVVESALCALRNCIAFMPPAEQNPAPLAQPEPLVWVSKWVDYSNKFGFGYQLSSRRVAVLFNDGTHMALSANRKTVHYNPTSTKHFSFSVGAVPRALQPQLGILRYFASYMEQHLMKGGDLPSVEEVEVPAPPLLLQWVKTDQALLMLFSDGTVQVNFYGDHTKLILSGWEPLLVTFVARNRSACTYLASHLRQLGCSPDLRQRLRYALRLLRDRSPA
Summary of the method: (§1)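 Profiling against 380 human recombinant kinases carried out by Eurofins at various compound concentrations.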

[2] = target: T2, 380 human recombinant protein kinases (Homo sapiens, UniProt Q05397); conditions: FAK(h), read-out: Inhibition rate
T2 construct: purchased Eurofins (Celle Lévescault)
T2 sequence (Q05397 whole entry): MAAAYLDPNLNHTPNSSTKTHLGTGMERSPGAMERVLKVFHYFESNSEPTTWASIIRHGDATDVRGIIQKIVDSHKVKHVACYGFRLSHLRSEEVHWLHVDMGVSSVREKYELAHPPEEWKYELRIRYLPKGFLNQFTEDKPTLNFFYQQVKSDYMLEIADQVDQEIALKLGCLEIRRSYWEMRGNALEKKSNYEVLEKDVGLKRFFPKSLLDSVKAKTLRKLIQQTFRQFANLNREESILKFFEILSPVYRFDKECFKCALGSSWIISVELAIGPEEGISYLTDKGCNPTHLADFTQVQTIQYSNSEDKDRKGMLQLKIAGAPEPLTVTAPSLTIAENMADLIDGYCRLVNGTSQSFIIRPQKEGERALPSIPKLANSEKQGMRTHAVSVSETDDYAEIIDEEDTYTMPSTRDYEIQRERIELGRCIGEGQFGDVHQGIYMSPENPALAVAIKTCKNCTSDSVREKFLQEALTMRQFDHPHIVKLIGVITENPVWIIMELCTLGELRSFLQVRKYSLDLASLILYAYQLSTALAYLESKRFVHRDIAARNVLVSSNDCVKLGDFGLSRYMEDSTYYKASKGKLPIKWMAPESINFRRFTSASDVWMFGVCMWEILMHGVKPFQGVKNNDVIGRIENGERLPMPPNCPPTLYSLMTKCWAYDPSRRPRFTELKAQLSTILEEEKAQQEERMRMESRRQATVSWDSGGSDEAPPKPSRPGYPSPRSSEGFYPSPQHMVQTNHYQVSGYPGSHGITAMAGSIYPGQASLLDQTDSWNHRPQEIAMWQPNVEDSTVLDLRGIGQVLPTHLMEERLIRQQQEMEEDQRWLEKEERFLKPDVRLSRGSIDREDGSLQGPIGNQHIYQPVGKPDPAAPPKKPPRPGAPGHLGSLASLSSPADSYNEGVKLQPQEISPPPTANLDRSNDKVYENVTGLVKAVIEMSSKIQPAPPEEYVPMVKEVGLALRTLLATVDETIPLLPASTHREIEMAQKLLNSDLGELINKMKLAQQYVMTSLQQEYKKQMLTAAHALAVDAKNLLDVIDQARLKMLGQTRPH
Summary of the method: as §1

[3] = target: T3, 380 human recombinant protein kinases (Homo sapiens, UniProt O00141); conditions: SGK(h), read-out: Inhibition rate (%)
T3 construct: purchased Eurofins (Celle Lévescault)
T3 sequence (O00141 1-431): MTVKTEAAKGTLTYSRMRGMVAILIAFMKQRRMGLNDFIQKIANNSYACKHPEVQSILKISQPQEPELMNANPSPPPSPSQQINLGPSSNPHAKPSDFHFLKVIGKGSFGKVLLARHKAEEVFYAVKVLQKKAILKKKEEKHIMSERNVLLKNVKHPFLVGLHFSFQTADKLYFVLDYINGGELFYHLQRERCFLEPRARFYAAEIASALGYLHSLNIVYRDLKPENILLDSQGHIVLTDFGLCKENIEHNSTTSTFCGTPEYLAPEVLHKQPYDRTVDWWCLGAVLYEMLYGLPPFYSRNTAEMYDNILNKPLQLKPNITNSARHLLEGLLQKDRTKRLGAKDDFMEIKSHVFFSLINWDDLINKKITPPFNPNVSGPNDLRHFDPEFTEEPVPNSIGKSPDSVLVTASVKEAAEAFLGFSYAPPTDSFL
Summary of the method: as §1

[4] = target: T4, 380 human recombinant protein kinases (Homo sapiens, UniProt Q16512); conditions: PRK1(h), read-out: Inhibition rate
T4 construct: purchased Eurofins (Celle Lévescault)
T4 sequence (Q16512 whole entry): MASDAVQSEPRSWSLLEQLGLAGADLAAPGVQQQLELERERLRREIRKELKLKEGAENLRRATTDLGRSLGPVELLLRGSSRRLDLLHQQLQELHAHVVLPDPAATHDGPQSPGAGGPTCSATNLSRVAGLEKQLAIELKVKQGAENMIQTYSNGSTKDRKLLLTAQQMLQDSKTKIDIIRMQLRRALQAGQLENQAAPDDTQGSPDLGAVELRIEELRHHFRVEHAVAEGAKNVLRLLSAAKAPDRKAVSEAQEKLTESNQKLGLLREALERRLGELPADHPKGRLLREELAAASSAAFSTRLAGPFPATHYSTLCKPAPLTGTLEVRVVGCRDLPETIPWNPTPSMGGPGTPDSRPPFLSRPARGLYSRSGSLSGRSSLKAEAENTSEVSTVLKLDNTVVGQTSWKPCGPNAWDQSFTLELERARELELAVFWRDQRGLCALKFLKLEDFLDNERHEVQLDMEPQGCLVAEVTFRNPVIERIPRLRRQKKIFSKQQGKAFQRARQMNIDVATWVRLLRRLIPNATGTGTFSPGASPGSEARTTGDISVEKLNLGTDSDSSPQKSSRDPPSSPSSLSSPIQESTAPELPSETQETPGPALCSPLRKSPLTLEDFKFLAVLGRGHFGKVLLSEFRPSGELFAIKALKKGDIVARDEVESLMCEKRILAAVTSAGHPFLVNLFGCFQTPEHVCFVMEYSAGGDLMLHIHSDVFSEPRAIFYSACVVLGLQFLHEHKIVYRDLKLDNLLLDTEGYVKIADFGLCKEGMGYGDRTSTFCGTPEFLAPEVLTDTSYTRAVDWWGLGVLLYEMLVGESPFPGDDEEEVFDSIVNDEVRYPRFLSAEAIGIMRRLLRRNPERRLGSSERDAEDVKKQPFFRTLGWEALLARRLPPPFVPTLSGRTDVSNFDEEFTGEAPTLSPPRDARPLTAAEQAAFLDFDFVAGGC
Summary of the method: as §1

[5] = target: T5, 380 human recombinant protein kinases (Homo sapiens, UniProt Q04771); conditions: ALK2(h), read-out: Inhibition rate
T5 construct: purchased Eurofins (Celle Lévescault)
T5 sequence (Q04771 21-509): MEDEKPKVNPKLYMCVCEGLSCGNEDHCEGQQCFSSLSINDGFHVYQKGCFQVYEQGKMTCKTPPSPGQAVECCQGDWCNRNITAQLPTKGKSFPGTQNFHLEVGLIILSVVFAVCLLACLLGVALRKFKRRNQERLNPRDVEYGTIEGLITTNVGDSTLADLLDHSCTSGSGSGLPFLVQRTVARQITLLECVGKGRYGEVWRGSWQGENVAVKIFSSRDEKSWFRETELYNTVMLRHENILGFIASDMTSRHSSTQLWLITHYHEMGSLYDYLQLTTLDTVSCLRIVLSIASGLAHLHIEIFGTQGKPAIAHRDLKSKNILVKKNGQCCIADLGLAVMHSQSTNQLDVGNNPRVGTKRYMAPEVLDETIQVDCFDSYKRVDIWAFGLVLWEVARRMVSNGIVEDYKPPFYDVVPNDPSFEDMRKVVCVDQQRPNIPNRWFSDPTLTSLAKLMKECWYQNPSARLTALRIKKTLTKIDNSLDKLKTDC
Summary of the method: as §1

[6] = target: T6, 380 human recombinant protein kinases (Homo sapiens, UniProt Q8TDC3); conditions: BrSK1(h), read-out: Inhibition rate
T6 construct: purchased Eurofins (Celle Lévescault)
T6 sequence (Q8TDC3 1-778): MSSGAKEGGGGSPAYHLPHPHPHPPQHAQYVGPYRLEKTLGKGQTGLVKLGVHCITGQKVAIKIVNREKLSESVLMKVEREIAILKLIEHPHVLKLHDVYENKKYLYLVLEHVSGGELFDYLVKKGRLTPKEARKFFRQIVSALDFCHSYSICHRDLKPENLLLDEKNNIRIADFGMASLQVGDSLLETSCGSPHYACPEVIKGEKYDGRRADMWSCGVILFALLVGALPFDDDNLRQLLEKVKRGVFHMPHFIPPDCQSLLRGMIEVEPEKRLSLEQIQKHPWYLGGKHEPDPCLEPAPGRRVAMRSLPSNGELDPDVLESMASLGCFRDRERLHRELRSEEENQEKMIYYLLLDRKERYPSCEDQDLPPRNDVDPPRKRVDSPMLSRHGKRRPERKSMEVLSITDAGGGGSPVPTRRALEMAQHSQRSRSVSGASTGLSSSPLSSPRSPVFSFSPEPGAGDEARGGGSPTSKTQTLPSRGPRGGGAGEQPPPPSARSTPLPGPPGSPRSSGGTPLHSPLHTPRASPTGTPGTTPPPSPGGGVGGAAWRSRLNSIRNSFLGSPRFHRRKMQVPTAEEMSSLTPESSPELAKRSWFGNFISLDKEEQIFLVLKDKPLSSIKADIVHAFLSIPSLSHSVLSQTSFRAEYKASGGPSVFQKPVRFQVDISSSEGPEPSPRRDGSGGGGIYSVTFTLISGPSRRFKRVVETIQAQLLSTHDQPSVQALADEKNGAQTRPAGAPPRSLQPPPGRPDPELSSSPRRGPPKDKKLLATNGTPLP
Summary of the method: as §1

[7] = target: T7, 380 human recombinant protein kinases (Homo sapiens, UniProt P49841); conditions: GSK3β(h), read-out: Inhibition rate
T7 construct: purchased Eurofins (Celle Lévescault)
T7 sequence (P49841 whole entry): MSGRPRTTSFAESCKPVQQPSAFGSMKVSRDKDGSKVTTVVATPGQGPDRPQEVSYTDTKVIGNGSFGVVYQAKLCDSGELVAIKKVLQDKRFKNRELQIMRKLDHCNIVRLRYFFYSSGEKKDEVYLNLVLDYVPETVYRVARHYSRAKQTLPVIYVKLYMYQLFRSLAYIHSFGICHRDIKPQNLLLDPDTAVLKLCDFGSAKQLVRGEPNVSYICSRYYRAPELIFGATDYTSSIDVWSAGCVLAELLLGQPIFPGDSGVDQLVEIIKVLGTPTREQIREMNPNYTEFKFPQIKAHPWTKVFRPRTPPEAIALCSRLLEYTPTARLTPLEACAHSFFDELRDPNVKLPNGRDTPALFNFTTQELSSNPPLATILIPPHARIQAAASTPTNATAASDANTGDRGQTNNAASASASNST
Summary of the method: as §1

[8] = target: T8, 380 human recombinant protein kinases (Homo sapiens, UniProt P08581); conditions: Met(h), read-out: Inhibition rate
T8 construct: purchased Eurofins (Celle Lévescault)
T8 sequence (P08581 25-1390): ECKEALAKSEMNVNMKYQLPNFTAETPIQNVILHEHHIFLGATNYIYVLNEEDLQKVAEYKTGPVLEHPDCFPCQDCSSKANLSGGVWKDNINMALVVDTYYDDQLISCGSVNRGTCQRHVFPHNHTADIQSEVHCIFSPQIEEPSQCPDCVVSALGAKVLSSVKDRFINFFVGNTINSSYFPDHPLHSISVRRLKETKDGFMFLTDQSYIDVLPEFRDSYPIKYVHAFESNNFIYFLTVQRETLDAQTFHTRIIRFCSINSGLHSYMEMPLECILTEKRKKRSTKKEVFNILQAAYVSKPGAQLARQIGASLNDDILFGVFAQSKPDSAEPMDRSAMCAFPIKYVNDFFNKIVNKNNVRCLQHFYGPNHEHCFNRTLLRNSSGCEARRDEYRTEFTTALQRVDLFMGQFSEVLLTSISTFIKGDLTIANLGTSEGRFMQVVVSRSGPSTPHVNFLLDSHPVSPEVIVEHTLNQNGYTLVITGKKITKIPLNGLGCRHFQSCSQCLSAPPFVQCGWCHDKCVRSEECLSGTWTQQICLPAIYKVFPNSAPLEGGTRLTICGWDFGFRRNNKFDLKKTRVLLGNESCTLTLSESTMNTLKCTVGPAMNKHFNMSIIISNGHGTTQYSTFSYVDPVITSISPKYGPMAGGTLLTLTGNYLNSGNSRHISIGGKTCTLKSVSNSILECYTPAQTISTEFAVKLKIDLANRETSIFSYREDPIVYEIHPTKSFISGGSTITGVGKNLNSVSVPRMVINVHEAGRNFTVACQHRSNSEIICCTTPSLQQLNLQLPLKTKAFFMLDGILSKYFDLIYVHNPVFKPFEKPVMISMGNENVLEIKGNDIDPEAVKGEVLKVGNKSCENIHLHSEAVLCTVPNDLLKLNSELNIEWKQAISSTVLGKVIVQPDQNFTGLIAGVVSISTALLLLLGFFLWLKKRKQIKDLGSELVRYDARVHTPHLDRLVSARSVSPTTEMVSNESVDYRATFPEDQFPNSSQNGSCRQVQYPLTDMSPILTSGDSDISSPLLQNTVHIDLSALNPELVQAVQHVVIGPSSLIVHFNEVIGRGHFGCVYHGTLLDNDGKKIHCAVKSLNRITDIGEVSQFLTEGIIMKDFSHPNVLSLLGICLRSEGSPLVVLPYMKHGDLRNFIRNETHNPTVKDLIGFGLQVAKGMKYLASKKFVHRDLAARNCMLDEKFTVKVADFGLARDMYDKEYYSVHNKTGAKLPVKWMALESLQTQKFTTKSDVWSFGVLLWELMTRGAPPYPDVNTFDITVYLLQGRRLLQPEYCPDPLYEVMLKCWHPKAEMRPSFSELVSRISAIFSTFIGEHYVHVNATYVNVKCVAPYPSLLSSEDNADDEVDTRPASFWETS
Summary of the method: as §1

[9] = target: T9, 380 human recombinant protein kinases (Homo sapiens, UniProt Q9UM73); conditions: ALK(h), read-out: Inhibition rate
T9 construct: purchased Eurofins (Celle Lévescault)
Summary of the method: as §1

With `C=CC(=O)Nc1cc(-c2cc(-c3cc4c([nH]3)CCNC4=O)ccn2)ccc1OC(F)(F)F` [compound 11] as the compound, how does the inhibition at 0.01 µM ([1]; 10 nM) read?
Its inhibition at 0.01 µM is 10%.

And the inhibition at 0.1 µM ([1]; 100 nM)?
The inhibition at 0.1 µM was 6%.

And the inhibition at 1 µM ([1]; 1000 nM)?
The inhibition at 1 µM was 15%.

And the inhibition at 0.01 µM ([2]; 10 nM)?
Its inhibition at 0.01 µM is -10%.

And the inhibition at 0.1 µM ([2]; 100 nM)?
The inhibition at 0.1 µM was -1%.

And the inhibition at 1 µM ([2]; 1000 nM)?
The inhibition at 1 µM was 1%.

And the inhibition at 0.01 µM ([3]; 10 nM)?
Its inhibition at 0.01 µM is 0%.

And the inhibition at 0.1 µM ([3]; 100 nM)?
The inhibition at 0.1 µM was 7%.

And the inhibition at 1 µM ([3]; 1000 nM)?
Its inhibition at 1 µM is 1%.

What about the inhibition at 0.01 µM ([4]; 10 nM) of the same compound?
Its inhibition at 0.01 µM is -3%.

And the inhibition at 0.1 µM ([4]; 100 nM)?
The inhibition at 0.1 µM was 6%.

And the inhibition at 1 µM ([4]; 1000 nM)?
The inhibition at 1 µM was 4%.

What about the inhibition at 0.01 µM ([5]; 10 nM) of the same compound?
The inhibition at 0.01 µM was -4%.

What about the inhibition at 0.1 µM ([5]; 100 nM) of the same compound?
Its inhibition at 0.1 µM is -6%.

What about the inhibition at 1 µM ([5]; 1000 nM) of the same compound?
Its inhibition at 1 µM is 0%.

What about the inhibition at 0.01 µM ([6]; 10 nM) of the same compound?
The inhibition at 0.01 µM was -7%.

What about the inhibition at 0.1 µM ([6]; 100 nM) of the same compound?
Its inhibition at 0.1 µM is -3%.

And the inhibition at 1 µM ([6]; 1000 nM)?
Its inhibition at 1 µM is 17%.

And the inhibition at 0.01 µM ([7]; 10 nM)?
The inhibition at 0.01 µM was -10%.

And the inhibition at 0.1 µM ([7]; 100 nM)?
Its inhibition at 0.1 µM is -7%.

And the inhibition at 1 µM ([7]; 1000 nM)?
Its inhibition at 1 µM is 5%.

What about the inhibition at 0.01 µM ([8]; 10 nM) of the same compound?
The inhibition at 0.01 µM was 6%.

And the inhibition at 0.1 µM ([8]; 100 nM)?
Its inhibition at 0.1 µM is 21%.

And the inhibition at 1 µM ([8]; 1000 nM)?
The inhibition at 1 µM was 62%.

What about the inhibition at 0.01 µM ([9]; 10 nM) of the same compound?
The inhibition at 0.01 µM was 6%.

What about the inhibition at 0.1 µM ([9]; 100 nM) of the same compound?
The inhibition at 0.1 µM was 6%.

What about the inhibition at 1 µM ([9]; 1000 nM) of the same compound?
The inhibition at 1 µM was 16%.
